Source: patent US11413291B2, “Pesticidally active heterocyclic derivatives with sulfur containing substituents” (SYNGENTA PARTICIPATIONS AG, priority 2017, dated 2022)

Key:
Assay type in all cases: in vivo
Myzus persicae [1] = assay: Example B5: Myzus persicae feeding/contact, sprayed sunflower leaf discs; settings: Myzus persicae, foliar, 144 h; application rate 200 ppm; mixed ages; 6 days after infestation
Description: Sunflower leaf discs were placed onto agar in a 24-well microtiter plate and sprayed with aqueous test solutions prepared from 10,000 ppm DMSO stock solutions. After drying, the leaf discs were infested with an aphid population of mixed ages. The samples were assessed for mortality 6 days after infestation.

Plutella xylostella = assay: Example B3: Plutella xylostella, artificial diet; settings: 120 h, application rate 200 ppm, L2 larvae, 5 days after infestation, read-out: effect in at least one of the two categories (mortality or growth inhibition)
Description: 24-well microtiter plates with artificial diet were treated with aqueous test solutions prepared from 10,000 ppm DMSO stock solutions by pipetting. After drying, the plates were infested with L2 larvae (10 to 15 per well). The samples were assessed for mortality and growth inhibition in comparison to untreated samples 5 days after infestation.

Spodoptera littoralis = assay: Example B1: Spodoptera littoralis, sprayed cotton leaf discs; settings: foliar, 72 h, application rate 200 ppm, L1 larvae, 3 days after infestation
Description: Cotton leaf discs were placed onto agar in 24-well microtiter plates and sprayed with aqueous test solutions prepared from 10′000 ppm DMSO stock solutions. After drying the leaf discs were infested with five L1 larvae. The samples were assessed for mortality, anti-feeding effect, and growth inhibition in comparison to untreated samples 3 days after infestation. Control of Spodoptera littoralis by a test sample is given when at least one of the categories mortality, anti-feedant effect, and growth inhibition is higher than the untreated sample.

Diabrotica balteata = assay: Example B4: Diabrotica balteata, sprayed maize sprouts; settings: 96 h, application rate 200 ppm, L2 larvae, 4 days after infestation, read-out: effect in at least one of the two categories (mortality or growth inhibition)
Description: Maize sprouts placed onto an agar layer in 24-well microtiter plates were treated with aqueous test solutions prepared from 10,000 ppm DMSO stock solutions by spraying. After drying, the plates were infested with L2 larvae (6 to 10 per well). The samples were assessed for mortality and growth inhibition in comparison to untreated samples 4 days after infestation.

[2] = test system: Frankliniella occidentalis; assay: Example B11: Frankliniella occidentalis, sprayed sunflower leaf discs; settings: foliar, 168 h, application rate 200 ppm, mixed ages, 7 days after infestation
Description: Sunflower leaf discs were placed on agar in 24-well microtiter plates and sprayed with aqueous test solutions prepared from 10,000 DMSO stock solutions. After drying the leaf discs were infested with a Frankliniella population of mixed ages. The samples were assessed for mortality 7 days after infestation.

Bemisia tabaci = assay: Example B7: Bemisia tabaci, sprayed cotton leaf discs; settings: foliar, 144 h, application rate 200 ppm, adult white flies, 6 days after incubation
Description: Cotton leaf discs were placed on agar in 24-well microtiter plates and sprayed with aqueous test solutions prepared from 10,000 ppm DMSO stock solutions. After drying the leaf discs were infested with adult white flies. The samples were checked for mortality 6 days after incubation.

Tetranychus urticae = assay: Example B10: Tetranychus urticae, sprayed bean leaf discs; settings: foliar, 192 h, application rate 200 ppm, mixed population (mobile stages), 8 days after infestation
Description: Bean leaf discs on agar in 24-well microtiter plates were sprayed with aqueous test solutions prepared from 10,000 ppm DMSO stock solutions. After drying the leaf discs were infested with a mite population of mixed ages. The samples were assessed for mortality on mixed population (mobile stages) 8 days after infestation.

Myzus persicae [3] = assay: Example B6: Myzus persicae systemic, pea seedling roots in test solution; settings: Myzus persicae, 144 h; test rate 24 ppm; mixed ages; 6 days
Description: Roots of pea seedlings infested with an aphid population of mixed ages were placed directly into aqueous test solutions prepared from 10,000 DMSO stock solutions. The samples were assessed for mortality 6 days after placing seedlings into test solutions.

CCS(=O)(=O)c1cc(C(C)(C)C#N)cnc1-c1nc2cc(C(F)(F)F)n(CC(F)(F)F)c(=O)c2n1C [Compound P11, 2-[5-ethylsulfonyl-6-[3-methyl-4-oxo-5-(2,2,2-trifluoroethyl)-6-(trifluoromethyl)imidazo[4,5-c]pyridin-2-yl]-3-pyridyl]-2-methyl-propanenitrile]
≥ 80%: mortality at 200 ppm (Myzus persicae [1]) | percent effect (mortality or growth inhibition) at 200 ppm (Plutella xylostella) | percent control (mortality, anti-feedant effect or growth inhibition) at 200 ppm (Spodoptera littoralis) | percent effect (mortality or growth inhibition) at 200 ppm (Diabrotica balteata) | mortality at 200 ppm [2] | mortality at 200 ppm (Bemisia tabaci)

CCS(=O)(=O)c1cc(C(C)(C)C#N)ccc1-c1nc2cc(C(F)(F)F)n(C3CC3)c(=O)c2n1C [Compound P12, 2-[4-[5-cyclopropyl-3-methyl-4-oxo-6-(trifluoromethyl)imidazo[4,5-c]pyridin-2-yl]-3-ethylsulfonyl-phenyl]-2-methyl-propanenitrile]
≥ 80%: mortality at 200 ppm (Myzus persicae [1]) | percent effect (mortality or growth inhibition) at 200 ppm (Plutella xylostella) | percent control (mortality, anti-feedant effect or growth inhibition) at 200 ppm (Spodoptera littoralis) | percent effect (mortality or growth inhibition) at 200 ppm (Diabrotica balteata) | mortality at 200 ppm [2] | mortality at 200 ppm (Tetranychus urticae) | mortality at 200 ppm (Bemisia tabaci)

CCS(=O)(=O)c1cc(C(C)(C)C#N)cnc1-c1cn2ccc(C(F)(F)C(F)(F)F)cc2n1 [Compound P6, 2-[5-ethylsulfonyl-6-[7-(1,1,2,2,2-pentafluoroethyl)imidazo[1,2-a]pyridin-2-yl]-3-pyridyl]-2-methyl-propanenitrile]
≥ 80%: mortality at 200 ppm (Myzus persicae [1]) | percent effect (mortality or growth inhibition) at 200 ppm (Plutella xylostella) | percent control (mortality, anti-feedant effect or growth inhibition) at 200 ppm (Spodoptera littoralis) | percent effect (mortality or growth inhibition) at 200 ppm (Diabrotica balteata) | mortality at 200 ppm [2] | mortality at 200 ppm (Tetranychus urticae) | mortality at 200 ppm (Bemisia tabaci)

CCS(=O)(=O)c1cc(C(C)(C)C#N)cnc1-c1cn2ccc(SC(F)(F)F)cc2n1 [Compound P7, 2-[5-ethylsulfonyl-6-[7-(trifluoromethylsulfanyl)imidazo[1,2-a]pyridin-2-yl]-3-pyridyl]-2-methyl-propanenitrile]
≥ 80%: mortality at 200 ppm (Myzus persicae [1]) | percent effect (mortality or growth inhibition) at 200 ppm (Plutella xylostella) | percent control (mortality, anti-feedant effect or growth inhibition) at 200 ppm (Spodoptera littoralis) | percent effect (mortality or growth inhibition) at 200 ppm (Diabrotica balteata) | mortality at 200 ppm [2] | mortality at 200 ppm (Bemisia tabaci)

CCS(=O)(=O)c1cc(C(C)(C)C#N)cnc1-c1nc2cc(C(F)(F)F)n(C3CC3)c(=O)c2n1C [Compound P17, 2-[6-[5-cyclopropyl-3-methyl-4-oxo-6-(trifluoromethyl)imidazo[4,5-c]pyridin-2-yl]-5-ethylsulfonyl-3-pyridyl]-2-methyl-propanenitrile]
≥ 80%: mortality at 200 ppm (Myzus persicae [1]) | mortality at 24 ppm (Myzus persicae [3]) | percent effect (mortality or growth inhibition) at 200 ppm (Plutella xylostella) | percent control (mortality, anti-feedant effect or growth inhibition) at 200 ppm (Spodoptera littoralis) | percent effect (mortality or growth inhibition) at 200 ppm (Diabrotica balteata) | mortality at 200 ppm [2] | mortality at 200 ppm (Tetranychus urticae) | mortality at 200 ppm (Bemisia tabaci)
